Source: US20150119352A1, “DINUCELOSIDE POLYPHOSPHATES FOR THE TREATMENT OF PAIN” (GlobalAcorn Ltd., priority 2012, published 2015)
Entries after “also recorded” stand apart in the source; their conditions may differ. Where two headings read alike, the source gives them in different places.

Key:
[1] = tested on: rats; test: Hargreaves plantar test under complete Freund adjuvant-induced thermal hyperalgesia; format: in vivo, rat; settings: for antinociceptive effect on CFA-induced thermal hyperalgesia (paw withdrawal latency): injection (100 μL) into the inflamed hind paw
Method: FIG. 8. […] A. Time-course of the effects of 1 and 20 μM (100 μL) of AppCH2ppA and AppNHppA on the paw withdrawal latency (PWL). B. Bar-graphs of the effects of AppCH2ppA and AppNHppA on the integral PWL.
FIG. 10. […] A. Time-course of the effects of i.t. AppCH2ppA on complete Freund adjuvant-induced thermal hyperalgesia (Hargreaves plantar test). B. Bar-graphs of the effects of i.t. AppCH2ppA on rat PWL.

[2] = tested on: male Wistar rats; test: Formalin test (nociceptive behaviour, spontaneous jerking of injected paw); format: in vivo, rat; settings: for nociceptive behavior after control injection of compound alone: 100 μM (100 μL), no formalin; for IC50: Rattus norvegicus; for IC50 First phase (acute pain), calculated / IC50 Second phase (chronic pain), calculated: Table 1, assuming 40 g rat body weight; for First phase (acute pain) / First phase (acute pain) (μg/kg) / Second phase (chronic pain) / Second phase (chronic pain) (μg/kg): Table 2; for First phase (acute pain) Human (70 kg) nmol / Second phase (chronic pain) Human (70 kg) nmol: Table 2, estimated indicative dose for 70 kg human; for First phase (acute pain) Rat (40 g) nmol / Second phase (chronic pain) Rat (40 g) nmol: Table 2, per 40 g rat; for recalculated effective concentration (second phase): assuming 40 g rat body weight; for number of nocifensive events triggered by the injection of formalin: co-injection 100 μL with formalin
Method: FIG. 6. Effects of subcutaneous Ap4A analogues on pain responses induced by intraplantar (right hindpaw) formalin injection. Rats were subcutaneously injected with formalin solution alone (0.5%, 50 μL, control) or co-injected with the formalin solution and solutions with AppCH2ppA (1 μM-100 μM, 100 μL) or AppNHppA (0.1 μM-100 μM, 100 μL). Age-matched control animals were injected with saline. A. Time-course of the effects of subcutaneous AppCH2ppA (a) and AppNHppA (b) on the number of the spontaneous jerkings of the injected paw. B. Bar-graphs of the effects of AppCH2ppA (a, b) and AppNHppA (c, d) on the integral number of spontaneous jerkings. Measurements were made during the acute phase (0-6 min) and tonic phase (7-45 min) of the formalin response. C. Dose-response curves for AppCH2ppA (a) and AppNHppA (b) during tonic and acute phases.
The formalin test experiments were performed on 21-day old male Wistar rats, weighing 40±5 g according to the method described previously (Simonetti et al, 2006; Yegutkin et al, 2008). Briefly, animal was acclimated to an acrylic observation chamber for at least 1 h before the injection of formalin ([…] of 0.5% solution in 0.9% saline) into the dorsal surface of the right hindpaw. Age-matched control animals were injected with saline (100 μL). Immediately after the injection, each animal was returned to the observation chamber and its behavioural characteristics were recorded for 45 min. We noticed consistently observed type of response: spontaneous jerking of the injected paw. The number of jerks was measured for each […], using self-developed computer software.
The effects of AppNHppA and AppCH2ppA were examined on the behavioral reactions of rats in inflammatory pain models. Injection of diluted formalin into a rodent's hindpaw produces a biphasic nociceptive response consisting of immediate (acute phase) and tonic (inflammatory phase) components. The first phase of a formalin response (i.e. 0-5 min after injection) involves a direct effect of formalin on the pain receptors, while changes in animal behavior during the second tonic phase (i.e. 7-45 min after injection) are caused by hyperalgesia that develops due to the sensitization of nociceptive and spinal neurons via mechanisms that are triggered by repetitive stimulation during the first phase.

[3] = Table 1, concentration, read-out: IC50 First phase (acute pain)
[4] = Table 1, concentration, read-out: IC50 Second phase (chronic pain)
[5] = co-injection (100 μL) with formalin into paw, read-out: IC50 in the first (acute) phase
[6] = co-injection (100 μL) with formalin into paw, read-out: IC50 in the second (tonic) phase

| SMILES | antinociceptive effect on CFA-induced thermal hyperalgesia (paw withdrawal latency) [1] | nociceptive behavior after control injection of compound alone [2] | IC50 [2, 3] | IC50 [2, 4] | IC50 [2, 5] | IC50 [2, 6] | IC50 First phase (acute pain), calculated [2] | IC50 Second phase (chronic pain), calculated [2] | First phase (acute pain) [2] | First phase (acute pain) (μg/kg) [2] | Second phase (chronic pain) [2] | Second phase (chronic pain) (μg/kg) [2] | First phase (acute pain) Human (70 kg) nmol [2] | Second phase (chronic pain) Human (70 kg) nmol [2] | First phase (acute pain) Rat (40 g) nmol [2] | Second phase (chronic pain) Rat (40 g) nmol [2] | recalculated effective concentration (second phase) [2] | number of nocifensive events triggered by the injection of formalin [2] | kH, second (tonic) phase ([2]; co-injection with formalin) | further results |
| --- | --- | --- | --- | --- | --- | --- | --- | --- | --- | --- | --- | --- | --- | --- | --- | --- | --- | --- | --- | --- |
| Nc1ncnc2c1ncn2[C@@H]1O[C@H](COP(=O)(O)OP(=O)(O)NP(=O)(O)OP(=O)(O)OC[C@H]2O[C@@H](n3cnc4c(N)ncnc43)C(O)C2O)C(O)C1O (stereo in doubt) [AppNHppA] | antinociceptive effect was observed | Lack of nociceptive behavior | > 100000 nM | 250 ± 90 nM | > 100000 nM | 250 ± 60 nM | >250 nmol/kg | 0.63 ± 0.23 nmol/kg | >250 nmol/kg | (209) μg/kg | 0.63 ± 0.23 nmol/kg | (0.526) μg/kg | 17500 nmol | 44.1 nmol | 10 nmol | 0.0252 nmol | 0.63±0.23 nmolkg | potently reduced | 0.89±0.18 | – |
| Nc1ncnc2c1ncn2[C@@H]1O[C@H](COP(=O)(O)OP(=O)(O)CP(=O)(O)OP(=O)(O)OC[C@H]2O[C@@H](n3cnc4c(N)ncnc43)C(O)C2O)C(O)C1O (stereo in doubt) [AppCH2ppA] | antinociceptive effect was observed | Lack of nociceptive behavior | 32000 ± 2200 nM | 510 ± 60 nM | 31900 ± 22000 nM | 500 ± 60 nM | 80 ± 5.5 nmol/kg | 1.28 + 0.06 nmol/kg | 80 ± 5.5 nmol/kg | (67) μg/kg | 1.28 ± 0.06 nmol/kg | (1.067) μg/kg | 5600 nmol | 89.6 nmol | 3.2 nmol | 0.0512 nmol | 1.28±0.06 nmolkg | potently reduced | 0.89±0.18 | antinociceptive effect ([1]; intra-thecal administration, 20 μM): 27%; antinociceptive effect ([1]; intraplantar administration): 53%; antinociceptive effect of intrathecal compared with intraplantar injection ([1]; intrathecal 20 μM, 100 μL): weaker delayed antinociceptive effect; also recorded: less pronounced analgesia; effect of local peripheral intraplantar injection relative to intrathecal injection ([1]; rat, in vivo): two-fold higher effect; kH, first (acute) phase ([2]; co-injection with formalin): 0.82±0.09; times more effective reduction of nocifensive behavior in second (tonic) phase compared with first (acute) phase ([2]; rat, in vivo): 60 times |
